Reference: paper PMC11233931, “Remodeling tumor‐associated macrophage for anti‐cancer effects by rational design of irreversible inhibition of mitogen‐activated protein kinase‐activated protein kinase 2” (MedComm, 2024)

What was measured:
[1] = system: MRC1 and ARG-1 mRNA in THP-1 monocyte induced macrophages; experiment: RT-PCR of M2 markers in IL-4/IL-13 stimulated THP-1 macrophages; type: cell-based, human; details: IL-4/IL-13 20 ng/mL
Excerpt: A previous study has reported that MK2 fostered M2‐like polarization of TAMs, driving a protumor and proangiogenic phenotype which in turn accelerates tumor progression.[21] We thus assessed the influence of compound 11 on macrophage polarization and function. Our experiments used human THP‐1 monocyte induced macrophages, mouse RAW264.7 macrophages, and mouse bone marrow‐derived macrophages (BMDM). These cells were induced into M2‐like macrophages using the classic IL‐4 and IL‐13 stimuli.
FIGURE 5 Inhibition of pro‐tumorigenic M2‐like polarization in macrophages by compound 11. (A–C) RT‐PCR analysis highlights the impact of compound 11 on MRC1 and ARG‐1 mRNA expression in various macrophage cells treated with IL‐4/IL‐13 alone or combined with compound 11 for 12 h or 24 h. […] Data are shown as the mean ± SD. ^* p < 0.05; ^*** p < 0.001 versus the vehicle group, determined by unpaired t test. […]
Total RNA was extracted from cultured cells using the EZ‐press RNA Purification Kit (EZBioscience). Complementary DNA was synthesized using the ABScript III RT Master Mix for qPCR with gDNA remover (ABclonal Technology) and was quantified with primers listed in Table S5. The relative mRNA expression levels were quantified through qPCR using the SYBR green gene expression assay (ABclonal Technology).

[2] = Mouse pharmacokinetics study; type: in vivo; details: male, ICR, plasma, mice, ip. 10 mg/kg, mean ± SD
Method: Compound 11 was dissolved in DMSO/Tween 80/PEG400/NaCl (5/5/45/45, v/v/v/v) to a concentration of 5 mg/mL and given to ICR mice (male, 18−22 g, n = 3) by intraperitoneal injection. Blood samples were obtained at intervals of 0.25, 0.5, 1, 2, 4, and 8 h following administration. The sample preparation and the analysis were following the protocol provided in the Supporting Information Methods.
[…] of plasma was mixed with […] of methanol: acetonitrile solvent (1:1, v/v) with internal standard, and the mixture was thoroughly vortexed. After centrifugation for 5 minutes, […] of the supernatant was combined with […] of water for analysis. Samples were analyzed by Xevo TQ-S triple quadrupole mass spectrometer. The ACQUITY UPLC BEH C^18 (1.7 µm, 2.0mm_ 50 mm, Waters, USA) was adopted for the analysis. Gradient elution was employed using a 5 mM ammonium acetate aqueous solution containing 0.1% formic acid, along with acetonitrile containing 0.1% formic acid. Following the analysis of compound concentrations, Phoenix WinNonlin (CERTARA, USA) was utilized to calculate the value of AUClast, AUCINFinf_obs and MRTINFinf_obs from time-concentration curves in each animal. Cmax denotes the peak plasma concentration, while Tmax signifies the time taken to achieve the peak concentration.

[3] = Cell viability assay (CCK-8), HCC44; type: cell-based; details: HCC44 cells (non-small cell lung carcinoma), HCC44, human non-small cell lung carcinoma, read-out: IC50 (μM) mean ± SD, cytotoxicity
Method: In cellular experiments, cells are seeded into either 6-well or 96-well plates and incubated overnight, proceeding with treatments as described in the figure legends or methods section. The cell inoculation numbers are outlined as follows: For assays measuring cell viability, between 3,000 to 5,000 cells are seeded per well in 96-well plates. For other cellular assays, the seeding density ranges from 5×10^5 to 1×10^6 cells per well in 6-well plates.
Cells was plated into 96-well plates and incubated overnight prior to introduction of varying concentrations of compounds or control solvent. Following a 72-hour exposure period, cell viability was determined using a Cell Counting Kit-8 assay (Life-iLab, China). Dose-response curves were fitted using a four-parameter method facilitated by SoftMax Pro, which was subsequently used for the computation of IC50 values.

**Q.** What does the source list for `C=CC(=O)Nc1cc(-c2cc(-c3cc4c([nH]3)CCNC4=O)ccn2)ccc1OC(F)(F)F` [compound 11]?
**A.** effect on transcriptional level of MRC1 and ARG-1 [1]: significantly suppressed; AUC(0-t) [2]: 44.5 ± 21.4 ng·h/mL; Cmax [2]: 126 ng/mL; Tmax [2]: 3 min; half-life [2]: 22.8 min; AUC ([2]; read-out: AUCinf_obc): 45.2 ± 21.3 ng·h/mL; MRT inf ([2]; read-out: MRTinf_obs): 98.4 ± 125 min; IC50 at 72 h [3]: 32.3 ± 3.3 µM
